Assay results published in publication PMC6154636, “Using UPLC-MS/MS for Characterization of Active Components in Extracts of Yupingfeng and Application to a Comparative Pharmacokinetic Study in Rat Plasma after Oral Administration” (Molecules : A Journal of Synthetic Chemistry and Natural …, 2017).
Where two headings read alike, the source gives them in different places.

Columns and labels:
[1] = Stability of the seven analytes in rat plasma (method validation); assay type: in vitro ADME; conditions: n = 6; for Short-Term RSD: auto-sampler vials for 24 h; for Freeze-Thaw RSD: three freeze–thaw cycles; for Long-Term RSD: −20 °C for 30 days
Experimental: Stability The short-term and long-term stability of seven analytes in rat plasma in auto-sampler vials for 24 h, at −20 °C for 30 days and after three freeze–thaw cycles was assessed, and also carried out in six replicates samples at three QC levels (low, medium and high).
Stability: The analytes would be considered stable when the accuracy bias was within ±15% of the nominal concentrations (or ±20% for LLOQ).

[2] = Pharmacokinetic study in rats after oral administration of mix standard solution (UPLC-QqQ-MS of plasma); assay type: in vivo, Sprague-Dawley rats
Experimental: Then, 300 μL acetonitrile for protein precipitation were added. For the incurred samples, 10 µL of methanol (volume of the corresponding standard solution for calibration curve) and 90 μL of samples with 300 μL acetonitrile were mixed, the mixture was then vortex-extracted for 2 min, and centrifuged for 10 min at 15,000 rpm (4 °C). The supernatant was transferred to a new tube and evaporated under a gentle stream of nitrogen to dryness. The residue was reconstituted with 80 μL of initial mobile phase, vortex-mixed for 1 min and centrifuged at 15,000 rpm for 5 min.
The Chromatographic UPLC-QqQ-MS procedure of pharmacokinetics study was performed using ACQUITY UPLC (Waters, Milford, MA, USA) and SCIEX SelexION Triple Quad™ 5500 System (AB Sciex, Framingham, MA, USA) equipped with a heated electrospray ionization source (ESI) interface, separation was achieved using a Waters BEH C18 column (2.1 mm × 100 mm, 1.7 μm) which was protected by an online filter, the mobile phase was at a flow rate of 0.5 mL/min, consisted of aqueous solvent A: water–acetic acid (1000:1, v/v) and organic phase solvent B: acetonitrile. A 10-min binary gradient elution was performed for the separation, and the consecutive program was as follows: an isocratic elution of 5% solvent B to equilibrate the column, then followed by a linear gradient elution: 0–2.5 min, 5–27% B; 2.5–3.1 min, 27–36% B; 3.1–4.1 min, 36–57% B; 4.1–4.8 min, 57–84% B; 4.8–5.8 min, 84–100% B; 5.8–7 min, 100–100% B; 7–8 min, 100–5% B; and the re-equilibration time of gradient elution was 2 min. The column and auto-sampler tray temperature were maintained constantly at 45 °C and 4 °C, respectively. The injection volume was 10 μL. The electrospray ionization source was operated in positive mode. Quantitation was performed by schedule multiple reactions monitoring (sMRM). In the positive mode, the tandem mass spectrometry (MS/MS) typical instrumental conditions were: ion spray voltage 5.5 kV, ion source gas 150 psi, ion source gas 250 psi, temperature 500 °C, and curtain gas 38 psi. Data acquisition and processing were performed using Analyst Software (AB Sciex, Corp., Framingham, MA, USA).
The developed UPLC-QqQ-MS method was applied to a pharmacokinetic study of seven analytes in rat plasma. Male healthy adult Sprague-Dawley rats (n = 6, 200 ± 20 g body weight) were supplied by Shanghai Jiao Tong University Laboratory Animal Centre (Shanghai, China). Animals were acclimatized in an environmental controlled breeding room with standard laboratory food and water for one week prior to the experiments. All the rats were fasted for 12 h, with free access to water prior to the experiments, animal welfare and experimental procedures conformed to guidance for the care and use of laboratory animals, similarly the ethical regulations of SJTU.
Then immediately centrifuged at 4000 rpm for 5 minutes, plasma was transferred into another via and stored at −80 °C until assay.
The plasma concentrations of seven analytes at different time points are described as the mean ± s.d. The concentration versus time curve was plotted. Compartmental model was chosen to calculate all the related pharmacokinetic parameters including Cmax (ng/mL), Tmax (h), AUC0−∞ (ng·h/mL), CL/F (L/h.kg), T1/2α (h) and T1/2β (h) were calculated by Kinetica4.4 software (Thermo Fisher Scientific™, Corp., Waltham, MA, USA), and performed with GraphPad 6 (GraphPad Software, Inc., La Jolla, CA, USA). We also use the area under the plasma concentration–time curve from zero to infinity (AUC0−∞) as the weighting factor to make an integrated pharmacokinetic curve. […]

[3] = cited from earlier work
[4] = high QC level (80.0 or 150 ng/mL)
[5] = low QC level (0.25, 0.50 or 1.50 ng/mL)
[6] = medium QC level (1.50, 3.50 or 15.0 ng/mL)
[7] = after oral administration (10 mg/kg)
[8] = male, Sprague-Dawley, rat, in vivo, po, 10 mg/kg, rats, oral 10 mg/kg mix standard in 0.5% CMC-Na, n = 6, Mean ± S.D., read-out: Tmax
[9] = male, Sprague-Dawley, rat, in vivo, Table 8, mean, after oral administration (10 mg/kg), read-out: AUC0−∞
[10] = male, Sprague-Dawley, rat, in vivo, rats, oral 10 mg/kg mix standard in 0.5% CMC-Na, n = 6, Mean ± S.D., compartmental model, read-out: Cmax
[11] = male, Sprague-Dawley, rat, in vivo, rats, oral 10 mg/kg mix standard in 0.5% CMC-Na, n = 6, Mean ± S.D., read-out: CL/F (converted)
[12] = male, Sprague-Dawley, rat, in vivo, rats, oral 10 mg/kg mix standard in 0.5% CMC-Na, n = 6, Mean ± S.D., read-out: T1/2β (converted)
[13] = rats, oral 10 mg/kg mix standard in 0.5% CMC-Na, n = 6, Mean ± S.D., 10 mg/kg
[14] = male, Sprague-Dawley, rat, in vivo, po, 10 mg/kg

Which “Short-Term RSD” value [1, 4] does the source give for `COc1ccc(-c2coc3cc(O)ccc3c2=O)cc1` [Formononetin] here?
Its value is 2.82%.

And the “Short-Term RSD” value [1, 5]?
Its value is 2.35%.

And the “Short-Term RSD” value [1, 6]?
Its value is 2.33%.

And the “Freeze-Thaw RSD” value [1, 4]?
The value was 10.58%.

And the “Freeze-Thaw RSD” value [1, 5]?
The value was 10.06%.

What about the “Freeze-Thaw RSD” value [1, 6] of the same molecule?
Its value is 7.09%.

And the “Long-Term RSD” value [1, 4]?
Its value is 6.22%.

What about the “Long-Term RSD” value [1, 5] of the same molecule?
The value was 5.96%.

What about the “Long-Term RSD” value [1, 6] of the same molecule?
Its value is 7.75%.

What about the “weighting coefficient ωj (AUC0−∞ of single analyte / total AUC0−∞ of analytes)” value [2, 7] of the same molecule?
Its value is 0.159.

What about the Tmax [2, 8] of the same molecule?
The Tmax was 1.65 h.

What about the AUC(0-inf) [2, 9] of the same molecule?
Its AUC(0-inf) is 113 ng·h/mL.

And the Cmax [2, 10]?
Its Cmax is 13.9 ± 4.2 ng/mL.

What about the CL/F [2, 11] of the same molecule?
The CL/F was 1530 mL/min/kg.

What about the half-life [2, 12] of the same molecule?
The half-life was 4.1 ± 2.6 h.

And the T1/2α [2, 13]?
Its T1/2α is 1.77 ± 0.81 h.

What about the Tmax [2, 13] of the same molecule?
The Tmax was 1.6 ± 0.9 h.

What about the T1/2α ([2]; rats, oral 10 mg/kg mix standard in 0.5% CMC-Na, n = 6, Mean ± S.D., listed as formononetin, 10 mg/kg) of the same molecule?
The T1/2α was 1.77 h.

Which “Short-Term RSD” value [1, 4] does the source give for `Cc1cc(=O)c2c(O)c3c(cc2o1)OC(C)(C)[C@@H](O[C@@H]1O[C@H](CO)[C@@H](O)[C@H](O)[C@H]1O)C3` [Sec-O-Glucosylhamaudol] here?
Its value is 1.01%.

And the “Short-Term RSD” value [1, 5]?
Its value is 2.75%.

What about the “Short-Term RSD” value [1, 6] of the same molecule?
Its value is 1.40%.

And the “Freeze-Thaw RSD” value [1, 4]?
The value was 9.64%.

And the “Freeze-Thaw RSD” value [1, 5]?
The value was 4.77%.

What about the “Freeze-Thaw RSD” value [1, 6] of the same molecule?
Its value is 3.73%.

And the “Long-Term RSD” value [1, 4]?
The value was 1.46%.

What about the “Long-Term RSD” value [1, 5] of the same molecule?
The value was 3.70%.

What about the “Long-Term RSD” value [1, 6] of the same molecule?
The value was 3.11%.

What about the T1/2α ([2]; rat, in vivo, po, 10 mg/kg) of the same molecule?
Its T1/2α is 1.10 ± 0.26 h.

And the T1/2β ([2]; rat, in vivo, po, 10 mg/kg)?
Its T1/2β is 2.4 ± 1.2 min.

And the “weighting coefficient ωj (AUC0−∞ of single analyte / total AUC0−∞ of analytes)” value ([2]; rat, in vivo, po, 10 mg/kg)?
The value was 0.379.

Which results are given for `COc1ccc(-c2coc3cc(O)ccc3c2=O)cc1O` [Calycosin]?
Short-Term RSD [1, 4]: 4.38%; Short-Term RSD [1, 5]: 4.18%; Short-Term RSD [1, 6]: 2.20%; Freeze-Thaw RSD [1, 4]: 12.92%; Freeze-Thaw RSD [1, 5]: 8.29%; Freeze-Thaw RSD [1, 6]: 6.08%; Long-Term RSD [1, 4]: 12.67%; Long-Term RSD [1, 5]: 4.13%; Long-Term RSD [1, 6]: 10.35%; AUC(0-inf) [2, 14]: 11.5 ng·h/mL; CL/F [2, 14]: 8330 mL/min/kg; Cmax [2, 14]: 6.3 ± 2.5 ng/mL; T1/2α [2, 14]: 0.27 ± 0.10 h; Tmax [2, 14]: 0.3 ± 0.1 h; half-life [2, 14]: 1.09 ± 0.36 h; weighting coefficient ωj (AUC0−∞ of single analyte / total AUC0−∞ of analytes) [2, 14]: 0.016

Which “Short-Term RSD” value [1, 4] does the source give for `COc1c2c(cc3oc(C)cc(=O)c13)OC(C(C)(C)OC1OC(CO)C(O)C(O)C1O)C2` [4-O-beta-D-glucosyl-5-O-methylvisamminol] here?
The value was 1.02%.

What about the “Short-Term RSD” value [1, 5] of the same molecule?
The value was 3.89%.

What about the “Short-Term RSD” value [1, 6] of the same molecule?
The value was 1.35%.

And the “Freeze-Thaw RSD” value [1, 4]?
Its value is 8.53%.

And the “Freeze-Thaw RSD” value [1, 5]?
Its value is 2.40%.

What about the “Freeze-Thaw RSD” value [1, 6] of the same molecule?
The value was 1.40%.

And the “Long-Term RSD” value [1, 4]?
Its value is 2.41%.

And the “Long-Term RSD” value [1, 5]?
The value was 3.99%.

And the “Long-Term RSD” value [1, 6]?
The value was 7.52%.

What about the AUC(0-inf) [2, 14] of the same molecule?
The AUC(0-inf) was 60.8 ng·h/mL.

What about the CL/F [2, 14] of the same molecule?
Its CL/F is 2810 mL/min/kg.

And the Cmax [2, 14]?
Its Cmax is 50 ± 7.6 ng/mL.

What about the T1/2α [2, 14] of the same molecule?
The T1/2α was 0.16 ± 0.01 h.

And the Tmax [2, 14]?
Its Tmax is 0.2 ± 0.01 h.

And the half-life [2, 14]?
The half-life was 2.4 ± 1.1 h.

What about the “weighting coefficient ωj (AUC0−∞ of single analyte / total AUC0−∞ of analytes)” value [2, 14] of the same molecule?
Its value is 0.085.

For `C=C1CCC[C@]2(C)C[C@@H]3OC(=O)C(C)=C3C[C@@H]12` [Atractylenolide II], which biliary excretion [3] is on record?
Its biliary excretion is “rapid”.

And the intestinal absorption [3]?
Its intestinal absorption is “poor”.

What about the AUC(0-inf) [2, 14] of the same molecule?
Its AUC(0-inf) is 17.9 ng·h/mL.

What about the CL/F [2, 14] of the same molecule?
The CL/F was 9820 mL/min/kg.

And the Cmax [2, 14]?
The Cmax was 8.4 ± 2.4 ng/mL.

What about the T1/2α [2, 14] of the same molecule?
Its T1/2α is 0.04 ± 0.01 h.

And the Tmax [2, 14]?
Its Tmax is 0.1 ± 0.1 h.

What about the half-life [2, 14] of the same molecule?
The half-life was 4.1 ± 1.56 h.

What about the “weighting coefficient ωj (AUC0−∞ of single analyte / total AUC0−∞ of analytes)” value [2, 14] of the same molecule?
The value was 0.025.

What does the source list for `CC(C)(O)C1CCC(C)(C2C(O)CC3(C)C4CC(OC5OC(CO)C(O)C(O)C5O)C5C(C)(C)C(OC6OCC(O)C(O)C6O)CCC56CC46CCC23C)O1` (stereo not shown) [Astragaloside]?
Short-Term RSD [1, 4]: 1.45%; Short-Term RSD [1, 5]: 7.06%; Short-Term RSD [1, 6]: 1.06%; Freeze-Thaw RSD [1, 4]: 11.51%; Freeze-Thaw RSD [1, 5]: 3.65%; Freeze-Thaw RSD [1, 6]: 3.20%; Long-Term RSD [1, 4]: 2.80%; Long-Term RSD [1, 5]: 3.36%; Long-Term RSD [1, 6]: 8.08%; bioavailability ([3]; stated as a known characteristic, no reference given): low; weighting coefficient ωj (AUC0−∞ of single analyte / total AUC0−∞ of analytes) [2, 7]: 0.269; Tmax [2, 8]: 2.8 ± 0.1 h; AUC(0-inf) [2, 9]: 191 ng·h/mL; Cmax [2, 10]: 26.6 ± 4 ng/mL; CL/F [2, 11]: 832 mL/min/kg; half-life [2, 12]: 2.06 ± 0.04 h; T1/2α ([2]; rats, oral 10 mg/kg mix standard in 0.5% CMC-Na, n = 6, Mean ± S.D.): 1.98 ± 0.11 h
